The results in this text go back to patent US4952580A, “Pesticidal polyhaloalkene derivatives” (priority 1988, dated 1990).

Like-named read-outs stand apart in the source and are kept apart here.

The test system of assay [1] is root-knot nematode (Meloidogyne incognita). Kind of assay: Initial Root-Knot Nematicidal Activity. In kind it is in vivo. The settings on record: 336 h, read-out: Percent Control; for pest or weed control at 0.078 ppm: Table 2, Application Rate 0.078 ppm; for pest or weed control at 0.312 ppm: Table 2, Application Rate 0.312 ppm; for pest or weed control at 0.625 ppm: Table 2, Application Rate 0.625 ppm; for pest or weed control at 1.25 ppm: Table 2, Application Rate 1.25 ppm; for pest or weed control at 2.5 ppm: Table 2, Application Rate 2.5 ppm; for pest or weed control at 0.313 ppm: Table 2, Application Rate 0.313 ppm. In outline:
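Compound incorporated into Meloidogyne incognita-infested soil at 10 ppm to 0.078 ppm, then planted with tomato or cucumber seedlings. Root galling scored two weeks after planting as a knot index and converted to percent control, given as averages.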

For assay [2], the system named is root-knot nematode. The assay can be described thus: Residual Root-Knot Nematicidal Activity. The format is in vivo, Meloidogyne incognita. The conditions noted are these: read-out: Percent Control. Here is the method: (§1) Compounds of this invention were tested as follows for nematicidal and anthelmintic activity as dust formulations (initial and residual activity) and as acetone/water formulations (systemic activity). The formulations are described above.
The ability of nematicidal compounds of the invention to control root-knot nematode infestations in soil over a period of time after treatment was evaluated. Dust formulations of test compound (5%) were incorporated into soil samples at test compound rates of 5 and 10 ppm. Subsequently, the treated soil samples were inoculated with nematode inoculum at weekly intervals, and Knot Index and Percent Control determined on seedlings planted in the soil samples. Specifically, soil treated with test compound was placed in 7.6 cm diameter fiber pots and stored in a greenhouse. At one, two and four weeks post-treatment, the appropriate number of pots was infested with root-knot nematode eggs and larvae. A cucumber or tomato seedling was planted in each pot and evaluated approximately two weeks after the soil infestation to obtain the test results reported in Tables 3 and 3a appended.

Assay [3] concerns cyst nematode. Kind of assay: Cyst Nematode Test. In kind it is in vivo. The settings on record: read-out: Percent Control; for pest or weed control at 5 ppm: Table 6, rate 5 ppm. Here is the method:
as §1
The procedures was substantially the same as described in the stunt nematode test except soybean seedlings were used. "Percent Control" (Table 6 appended) is as defined in the stunt nematode test results.

The test system of assay [4] is root-knot nematode. The assay can be described thus: Soil Mobility against root-knot nematode. In kind it is in vivo, Meloidogyne incognita. The conditions noted are these: 336 h. In outline: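 Soil mobility of the nematicidal test material was evaluated by placing treated, nematode-infested soil in 8 cm plastic pots stacked above two or more pots of untreated infested soil, each containing a 10 cm^3 sand layer and filter paper discs. Fifteen cm of water was dripped through, pots drained 16-18 hours, then were planted with cucumber or tomato seedlings and scored for Percent Control.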

In assay [5] the test system is lesion nematode. Kind of assay: Lesion Nematode Test. The conditions noted are these: Table 5, read-out: Percent Control; for pest or weed control at 2.5 ppm: rate 2.5 ppm. In kind it is in vivo. Here is the method:
as §1
The procedure was substantially the same as in the stunt nematode test described above except that pea seedlings were used. The results (Table 5 appended) show good control with many of the compounds at the application rates tested as compared with untreated samples (no control). "Percent Control" is defined as follows: [formula]

Assay [6] relates to Caenorhabditis elegans. Kind of assay: C. Elegans Nematode Screening Test and Evaluation (in-vitro). The settings on record: Caenorhabditis elegans; for inhibition at 5 ppm / inhibition at 1.25 ppm / inhibition at 2.5 ppm: read-out: Percent Inhibition of Reproduction; for mortality at 5 ppm / mortality at 1.25 ppm / mortality at 2.5 ppm: read-out: Percent Mortality. In outline: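 Worms (10-15 per well) in buffer with E. coli food, ampicillin and mycostatin; compound added in DMSO, 2-3 replicates per rate. Incubated 5-6 days at 20° C. Population development scored against untreated wells, noting effects such as reduced egg hatch or molting disruption.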

Assay [7] concerns stunt nematode. Kind of assay: Stunt Nematode Test. The conditions noted are these: 672 h, Table 4a; rate 5 ppm; read-out: Percent Control. In kind it is in vivo. Here is the method:
as §1
The procedure was substantially the same as in the […] seedling, with subsequent inoculation of the soil with combined larvae and adult stunt nematodes. The samples were evaulated approximately four weeks after infestation. […] "Percent control" means the difference between average population counts between untreated and treated samples, divided by average population count of untreated sample, multiplied by 100.

For assay [8], the system named is root-knot nematode. The assay can be described thus: Systemic Activity (basipetal, foliar spray) against root-knot nematode. In kind it is in vivo, Meloidogyne incognita. The conditions noted are these: 336 h, read-out: Percent Control. Here is the method: as §1
Compounds of the invention were tested for basipetal systemic activity against the root-knot nematode. In this test, tomato plants are grown in 10.2 cm diameter fiber pots containing steam-pasteurized soil mix (50%, soil, 50% sand) until 4-6 true leaves appear. Three of the pots are then placed on a turntable in a spray hood and the plants sprayed with 50 ml of water/acetone solution containing the test compound. The soil surface is covered during the spraying to prevent spraying of the soil. After treatment, the potted plants are placed in a lighted drying chamber. The plants are then grown in a growth chamber at 25° C. for three days and inoculated with a standard nematode culture by incorporating the inoculum into the top cm of soil in the pots. The plants are returned to the growth chamber for about two weeks at which time the pots are allowed to dry until the plants begin to wilt. The roots are shaken free of soil and the degree of galling (swelling) noted as compared to galling of untreated control plants. The results are expressed as Knot Index and Percent Control as defined in the initial root-knot nematode activity tests reported above in Table 2.

[9] abbreviates: 672 h, Table 3, inoculation 4 weeks after treatment.
Where [10] appears, read: 168 h, Table 3, inoculation 1 week after treatment.
[11] abbreviates: 336 h, Table 3, inoculation 2 weeks after treatment.
Setting [12] is: Table 7, 30 ppm, Bottom container, read-out: Percent Control.
Setting [13] is: Table 7, 30 ppm, Middle container, read-out: Percent Control.

Take `FC(F)=C(F)CCSc1nc(Cl)ns1` [Compound 8, 3-chloro-5-(3,4,4-trifluoro-3-butenylthio)-1,2,4-thiadiazole]: in assay [1], the pest or weed control at 0.078 ppm is 58%, the pest or weed control at 0.312 ppm came out at 100%, the pest or weed control at 0.625 ppm worked out at 100% and the pest or weed control at 1.25 ppm was 100%. In assay [1], the pest or weed control at 2.5 ppm is 100% and the pest or weed control at 0.156 ppm worked out at 95%. The pest or weed control at 5 ppm in assay [2] (setting [9]) amounted to 98%. In assay [3], the pest or weed control at 5 ppm came out at 92%. In addition, in assay [4] (Table 7, 5 ppm, Bottom container, read-out: Percent Control), the pest or weed control at 5 ppm came to 96%. Further, the pest or weed control at 5 ppm in assay [4] (Table 7, 5 ppm, Middle container, read-out: Percent Control) came out at 100%. Moreover, in assay [4] (Table 7, 5 ppm, Top container, read-out: Percent Control), the pest or weed control at 5 ppm is 100%.

Consider `O=C(CSCCC(F)=C(F)F)OCCC(F)=C(F)F` [Compound 18, (3,4,4-trifluoro-3-butenyl) (3,4,4-trifluoro-3-butenylthio)acetate], for which the pest or weed control at 5 ppm came to 0% in assay [5] (rate 5 ppm); 99% in assay [1] (Table 2, Application Rate 5.0 ppm); 8% in assay [3]. Also, the pest or weed control at 0.313 ppm in assay [1] stood at 0%. In addition, the pest or weed control at 0.625 ppm in assay [1] came to 19%. The pest or weed control at 1.25 ppm in assay [1] turned out to be 38%. In addition, the pest or weed control at 10 ppm in assay [1] (Table 2, Application Rate 10.0 ppm) is 100%; in assay [2] (setting [10]), 0%; in assay [2] (setting [11]), 0%; in assay [2] (setting [9]), 0%. Further, the pest or weed control at 30 ppm in assay [4] (setting [12]) amounted to 25%; in assay [4] (setting [13]) it was 25%; in assay [4] (read-out: Percent Control, Table 7, 30 ppm, Top container) it was 33%.

`O=C(OCCC(F)=C(F)F)c1ccc([N+](=O)[O-])o1` [Compound 21, (3,4,4-trifluoro-3-butenyl) 5-nitro-2-furancarboxylate]: the pest or weed control at 2.5 ppm in assay [5] stood at 54%; in assay [1] it was 64%; in assay [3] it was 33%. For the same molecule, in assay [1], the pest or weed control at 0.313 ppm turned out to be 0%. Further, the pest or weed control at 0.625 ppm in assay [1] stood at 8%. Further, in assay [1], the pest or weed control at 1.25 ppm is 31%. Moreover, the results for the pest or weed control at 5 ppm in assay [2] (setting [10]), in assay [2] (setting [11]) and in assay [2] (setting [9]) were 13%, 8% and 0%, respectively. Moreover, the pest or weed control at 30 ppm came out at 99% in assay [4] (setting [12]); 96% in assay [4] (setting [13]); 100% in assay [4] (Table 7, 30 ppm, Top container, read-out: Percent Control).

Regarding `FC(F)=C(F)CCSc1nnc(SCc2ccccc2)s1` [Compound 32, 2-phenylmethylthio-5-(3,4,4-trifluoro-3-butenylthio)-1,3,4-thiadiazole], the pest or weed control at 1.25 ppm in assay [5] (rate 1.25 ppm) is 0%; in assay [1] it was 99%. The pest or weed control at 2.5 ppm in assay [5] amounted to 28%; in assay [1] it was 100%. For the same molecule, the pest or weed control at 0.625 ppm in assay [5] (rate .625 ppm) stood at 0%; in assay [1], 97%. Further, the inhibition (usually how much of the control response was suppressed) at 5 ppm in assay [6] (Table 9 screen) worked out at 100%. For the same molecule, the mortality (commonly the percentage killed) at 5 ppm was 100% in assay [6] (Table 9 screen) and 8% in assay [6] (Table 10 evaluation). Further, in assay [6] (Table 10 evaluation), the inhibition at 1.25 ppm is 25%. Moreover, the mortality at 1.25 ppm in assay [6] (Table 10 evaluation) turned out to be 0%. Further, the inhibition at 2.5 ppm in assay [6] (Table 10 evaluation) worked out at 42%. The mortality at 2.5 ppm in assay [6] (Table 10 evaluation) stood at 0%. The pest or weed control at 5 ppm in assay [7] is 84%; in assay [2] (168 h, Table 3a, 5% dust, inoculation 1 week post-treatment), 99%; in assay [2] (336 h, Table 3a, 5% dust, inoculation 2 weeks post-treatment) it was 99%; in assay [2] (672 h, Table 3a, 5% dust, inoculation 4 weeks post-treatment), 82%; in assay [4] (Table 7a, 5% dust, 5 ppm, BOTTOM container, read-out: Percent Control), 25%; in assay [4] (Table 7a, 5% dust, 5 ppm, MIDDLE container, read-out: Percent Control), 75%. Besides, in assay [4] (Table 7a, 5% dust, 5 ppm, TOP container, read-out: Percent Control), the pest or weed control at 5 ppm stood at 99%. In addition, the pest or weed control at 0.078 ppm in assay [1] stood at 8%. In assay [1] (Table 2, Application Rate 0.156 ppm), the pest or weed control at 0.156 ppm is 31%. In assay [1], the pest or weed control at 0.312 ppm worked out at 78%. The pest or weed control at 2000 ppm in assay [8] (foliar, Table 8, rate 2000 ppm) is 25%.

For `FC(F)=C(F)CCSc1nnc(SCc2ccc(Br)cc2)s1` [Compound 33, 2-(4-bromophenylmethylthio)-5-(3,4,4-trifluoro-3-butenylthio)-1,3,4-thiadiazole], the pest or weed control at 2.5 ppm in assay [5] is 46%. For the same molecule, in assay [6] (Table 9 screen), the inhibition at 5 ppm came to 100% and the mortality at 5 ppm turned out to be 100%. Further, in assay [6] (Table 10 evaluation), the mortality at 5 ppm came out at 100%, the inhibition at 1.25 ppm turned out to be 100%, the mortality at 1.25 ppm was determined as 100% and the inhibition at 2.5 ppm stood at 100%. The mortality at 2.5 ppm in assay [6] (Table 10 evaluation) is 100%. In addition, the pest or weed control at 5 ppm in assay [7] turned out to be 52%. Further, in assay [1], the pest or weed control at 0.312 ppm came out at 38%, the pest or weed control at 0.625 ppm was 70%, the pest or weed control at 1.25 ppm turned out to be 84% and the pest or weed control at 2.5 ppm was determined as 97%. In addition, in assay [8] (Table 8, rate 2500 ppm), the pest or weed control at 2500 ppm came to 17%.
